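Method: 48-hour compound exposure of cells in 96-well plates, five concentrations, linear interpolation of endpoints. At the GI50, growth is halved.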 The source made the active and inactive calls. Rule as the data show it: active = GI50 up to about 1.1 µM and inactive = higher.
Experiments:
Experiment in all cases: DTP human tumour cell line panel, 48 h
OVCAR-5 = test system: OVCAR-5
HCT-116 = test system: HCT-116
SW-620 = test system: SW-620
786-0 = test system: 786-0
M14 = test system: M14
TK-10 = test system: TK-10
SK-MEL-5 = test system: SK-MEL-5
LOX IMVI = test system: LOX IMVI
SF-539 = test system: SF-539
U-251 = test system: U-251
HT-29 = test system: HT-29
SN12C = test system: SN12C
RPMI-8226 = test system: RPMI-8226
KM12 = test system: KM12
UACC-257 = test system: UACC-257
MCF7 = test system: MCF7
HCT-15 = test system: HCT-15
OVCAR-3 = test system: OVCAR-3
HCC 2998 = test system: HCC 2998

CC1(C)OC2C(=O)C=C(COCc3ccccc3)C2O1 (stereo not drawn)
GI50 (OVCAR-5): 31.1 µM (inactive)
GI50 (HCT-116): 23.6 µM (inactive)
GI50 (SW-620): 23.6 µM (inactive)
GI50 (786-0): 42.8 µM (inactive)
GI50 (M14): 26.3 µM (inactive)
GI50 (TK-10): 28.2 µM (inactive)
GI50 (SK-MEL-5): 13.1 µM (inactive)
GI50 (LOX IMVI): 25.6 µM (inactive)
GI50 (SF-539): 30 µM (inactive)
GI50 (U-251): 29.2 µM (inactive)
GI50 (HT-29): 33 µM (inactive)
GI50 (SN12C): 28 µM (inactive)
GI50 (RPMI-8226): 24.8 µM (inactive)
GI50 (KM12): 21.5 µM (inactive)
GI50 (UACC-257): 35.5 µM (inactive)
GI50 (MCF7): 34 µM (inactive)
GI50 (HCT-15): 35.2 µM

Cc1ccc(/N=N/c2ccc(N)cc2C)c(S(N)(=O)=O)c1
GI50 (OVCAR-5): > 100 µM (inactive)
GI50 (HCT-116): 75.3 µM (inactive)
GI50 (SW-620): > 100 µM (inactive)
GI50 (786-0): > 100 µM (inactive)
GI50 (M14): > 100 µM (inactive)
GI50 (TK-10): 48.9 µM (inactive)
GI50 (SK-MEL-5): 77.6 µM (inactive)
GI50 (LOX IMVI): 78.5 µM (inactive)
GI50 (SF-539): > 100 µM (inactive)
GI50 (OVCAR-3): 50.4 µM (inactive)
GI50 (U-251): > 100 µM (inactive)
GI50 (HT-29): 82.4 µM (inactive)
GI50 (SN12C): > 100 µM (inactive)
GI50 (RPMI-8226): 70.8 µM (inactive)
GI50 (KM12): > 100 µM (inactive)
GI50 (UACC-257): 45.2 µM (inactive)
GI50 (MCF7): 61.9 µM (inactive)
GI50 (HCT-15): 71.4 µM

COc1cc(N(Cc2ccc3nc(OC)c(OC)nc3c2)Cc2ccc3nc(OC)c(OC)nc3c2)cc(OC)c1OC
GI50 (OVCAR-5): > 50 µM (inactive)
GI50 (HCT-116): 33.2 µM (inactive)
GI50 (SW-620): > 50 µM (inactive)
GI50 (786-0): 16.3 µM (inactive)
GI50 (M14): > 50 µM (inactive)
GI50 (TK-10): 30.8 µM (inactive)
GI50 (SK-MEL-5): > 50 µM (inactive)
GI50 (LOX IMVI): > 50 µM (inactive)
GI50 (SF-539): 26.3 µM (inactive)
GI50 (OVCAR-3): 31.5 µM (inactive)
GI50 (U-251): 19.8 µM (inactive)
GI50 (HT-29): > 50 µM (inactive)
GI50 (SN12C): > 50 µM (inactive)
GI50 (RPMI-8226): > 50 µM (inactive)
GI50 (KM12): > 50 µM (inactive)
GI50 (UACC-257): > 50 µM (inactive)
GI50 (MCF7): 32.9 µM (inactive)
GI50 (HCT-15): > 50 µM

O=C1c2ccccc2-c2[nH]c3cn[nH]c(=O)c3c21
GI50 (OVCAR-5): > 100 µM (inactive)
GI50 (HCT-116): 38.6 µM (inactive)
GI50 (SW-620): > 100 µM (inactive)
GI50 (786-0): > 100 µM (inactive)
GI50 (M14): > 100 µM (inactive)
GI50 (TK-10): > 100 µM (inactive)
GI50 (SK-MEL-5): > 100 µM (inactive)
GI50 (LOX IMVI): 78.5 µM (inactive)
GI50 (SF-539): > 100 µM (inactive)
GI50 (OVCAR-3): > 100 µM (inactive)
GI50 (U-251): > 100 µM (inactive)
GI50 (HT-29): > 100 µM (inactive)
GI50 (SN12C): > 100 µM (inactive)
GI50 (RPMI-8226): 92.9 µM (inactive)
GI50 (KM12): > 100 µM (inactive)
GI50 (UACC-257): > 100 µM (inactive)
GI50 (MCF7): 43.9 µM (inactive)
GI50 (HCT-15): 82.6 µM

COc1ccc(/C=C/C(=O)CCN2CCN(CCC(=O)/C=C/c3ccc(OC)cc3)CC2)cc1
GI50 (OVCAR-5): 17.9 µM (inactive)
GI50 (HCT-116): 3.29 µM (inactive)
GI50 (SW-620): 4.1 µM (inactive)
GI50 (786-0): 3.4 µM (inactive)
GI50 (M14): 15.3 µM (inactive)
GI50 (TK-10): 14.9 µM (inactive)
GI50 (SK-MEL-5): 18.1 µM (inactive)
GI50 (LOX IMVI): 3.49 µM (inactive)
GI50 (SF-539): 6.17 µM (inactive)
GI50 (OVCAR-3): 11.4 µM (inactive)
GI50 (U-251): 12.1 µM (inactive)
GI50 (HT-29): 10.4 µM (inactive)
GI50 (SN12C): 12.6 µM (inactive)
GI50 (KM12): 10.7 µM (inactive)
GI50 (HCC 2998): 12.2 µM (inactive)
GI50 (UACC-257): 14.8 µM (inactive)
GI50 (MCF7): 3.56 µM (inactive)
GI50 (HCT-15): 8.53 µM

C#C[C@]1(O)CC[C@H]2[C@@H]3CCC4=C/C(=N/OC(=O)c5cccc6c(=O)c7ccccc7[nH]c56)CCC4[C@H]3CC[C@@]21CC (stereo partly drawn)
GI50 (OVCAR-5): > 100 µM (inactive)
GI50 (HCT-116): 25 µM (inactive)
GI50 (SW-620): 24 µM (inactive)
GI50 (786-0): 4.91 µM (inactive)
GI50 (M14): 34.5 µM (inactive)
GI50 (TK-10): > 100 µM (inactive)
GI50 (SK-MEL-5): 14.9 µM (inactive)
GI50 (LOX IMVI): 15.7 µM (inactive)
GI50 (OVCAR-3): 18.7 µM (inactive)
GI50 (U-251): 9.89 µM (inactive)
GI50 (HT-29): 8.28 µM (inactive)
GI50 (SN12C): 39.6 µM (inactive)
GI50 (RPMI-8226): 1.37 µM (inactive)
GI50 (KM12): 20.1 µM (inactive)
GI50 (HCC 2998): 26.5 µM (inactive)
GI50 (UACC-257): 11.3 µM (inactive)
GI50 (MCF7): 25.1 µM (inactive)
GI50 (HCT-15): 13.4 µM

Cc1ccsc1/C=N/Nc1nc2ccccc2s1
GI50 (OVCAR-5): 40.9 µM (inactive)
GI50 (HCT-116): 11.2 µM (inactive)
GI50 (SW-620): 25 µM (inactive)
GI50 (786-0): 12.3 µM (inactive)
GI50 (M14): 28.1 µM (inactive)
GI50 (TK-10): 13.9 µM (inactive)
GI50 (SK-MEL-5): 20.9 µM (inactive)
GI50 (LOX IMVI): 23.9 µM (inactive)
GI50 (OVCAR-3): 12.9 µM (inactive)
GI50 (U-251): 13.5 µM (inactive)
GI50 (HT-29): 34.6 µM (inactive)
GI50 (SN12C): 13.3 µM (inactive)
GI50 (RPMI-8226): 19.4 µM (inactive)
GI50 (KM12): 24.2 µM (inactive)
GI50 (HCC 2998): 63.2 µM (inactive)
GI50 (UACC-257): 20.4 µM (inactive)
GI50 (MCF7): 11.5 µM (inactive)
GI50 (HCT-15): 50.5 µM

Cc1cc(C)c(C)c(-n2[nH]c(=O)n(C)c2=O)c1C
GI50 (OVCAR-5): > 100 µM (inactive)
GI50 (HCT-116): > 100 µM (inactive)
GI50 (SW-620): > 100 µM (inactive)
GI50 (786-0): > 100 µM (inactive)
GI50 (M14): > 100 µM (inactive)
GI50 (TK-10): > 100 µM (inactive)
GI50 (SK-MEL-5): > 100 µM (inactive)
GI50 (LOX IMVI): 99.3 µM (inactive)
GI50 (SF-539): > 100 µM (inactive)
GI50 (OVCAR-3): > 100 µM (inactive)
GI50 (U-251): > 100 µM (inactive)
GI50 (HT-29): > 100 µM (inactive)
GI50 (SN12C): > 100 µM (inactive)
GI50 (RPMI-8226): > 100 µM (inactive)
GI50 (KM12): > 100 µM (inactive)
GI50 (UACC-257): > 100 µM (inactive)
GI50 (MCF7): > 100 µM (inactive)
GI50 (HCT-15): > 100 µM
